From patent US8324390B2, “Tetrazole-substituted anthranilamides as pesticides” (Bayer CropScience AG, priority 2008, dated 2012)
Like-named read-outs stand apart in the source and are kept apart here.

Assays:
[1] = tested on: caterpillars of the armyworm (Spodoptera frugiperda); test: Spodoptera frugiperda test (SPODFR spray treatment); assay type: in vivo; conditions: Spodoptera frugiperda, foliar, read-out: effect in % (caterpillars killed)
Text: Solvent: 78.0 parts by weight of acetone

[2] = log P determination by HPLC (EEC Directive 79/831 Annex V.A8); assay type: physicochemical
Experimental: The measurements were carried out using an Agilent 1100 LC system with a 50*4.6 Zorbax Eclipse C18 1.8 μm column (oven temperature 55° C., flow rate 2.0 ml/min).
The following mobile phases were used:
Mobile phase A: acetonitrile+1000 μl of formic acid/l
Mobile phase B: Millipore water+900 μl of formic acid/l

[3] = tested on: larvae of the mustard beetle (Phaedon cochleariae); test: Phaedon test (PHAECO spray treatment); conditions: Phaedon cochleariae, in Brassica rapa, foliar, read-out: effect in % (beetle larvae killed)
[4] = application rate 100 g/ha, maize leaf discs
[5] = reversed-phase HPLC, Zorbax Eclipse C18 column, by HPLC according to EEC Directive 79/831 Annex V.A8, read-out: log P
[6] = reversed-phase HPLC, Zorbax Eclipse C18 column, determined by HPLC according to EEC Directive 79/831 Annex V.A8, read-out: log P
[7] = by HPLC according to EEC Directive 79/831 Annex V.A8, read-out: log P

SMILES | pest or weed control at 100 g/ha [1, 4] [%] | chromatographic logP [2, 5] | pest or weed control at 100 g/ha [3] [%] | pest or weed control at 100 g/ha ([1]; in Zea mays) [%] | chromatographic logP ([2]; log P) | chromatographic logP [2, 6] | chromatographic logP [2, 7]
O=C(NCC(F)F)c1cc(Cl)cc(Cl)c1NC(=O)c1cc(Cn2nnc(C(F)(C(F)(F)F)C(F)(F)F)n2)nn1-c1ncccc1Cl [Example 396] | ≥ 80 | 3.89 | ≥ 80 |  |  |  | 
O=C(NCC1CC1)c1cc(Cl)cc(Cl)c1NC(=O)c1cc(Cn2nnc(C(F)(F)C(F)(F)F)n2)nn1-c1ncccc1Cl [Example 156] |  |  | ≥ 80 | ≥ 80 | 3.88 |  | 
CCNC(=O)c1cc(Br)cc(C)c1NC(=O)c1cc(Cn2nnnc2C(F)(F)F)nn1-c1ncccc1C(F)(F)F [Example 453] | ≥ 80 |  | ≥ 80 |  |  | 3.17 | 
Cc1cc(F)cc(C(=O)NC(C)C)c1NC(=O)c1cc(Cn2nnc(C(F)(F)F)n2)nn1-c1ncccc1Cl [Example 40] |  |  | ≥ 80 | ≥ 80 | 3.11 |  | 
C#CCNC(=O)c1cc(C#N)cc(C)c1NC(=O)c1cc(Cn2nnnc2C(F)(F)F)nn1-c1ncccc1Cl [Example 187] |  |  | ≥ 80 | ≥ 80 | 2.48 |  | 
Cc1cc(C#N)cc(C(=O)NC(C)(C)C)c1NC(=O)c1cc(C(C)n2nnc(C(F)(F)F)n2)nn1-c1ncccc1Cl (stereo not drawn) [Example 436] |  |  | ≥ 80 | ≥ 80 | 3.7 |  | 
Cc1cc(Cl)cc(C(=O)NCC#N)c1NC(=O)c1cc(Cn2nnc(C(F)F)n2)nn1-c1ncccc1Cl [Example 261] |  |  | ≥ 80 | ≥ 80 | 2.5 |  | 
Cc1cc(I)cc(C(=O)NC(C)C)c1NC(=O)c1cc(Cn2nnc(C(F)(C(F)(F)F)C(F)(F)F)n2)nn1-c1ncccc1Cl [Example 381] |  |  | ≥ 80 | ≥ 80 | 4.44 |  | 
Cc1cc(Br)cc(C(=O)NC(C)C)c1NC(=O)c1cc(Cn2nnc(C(F)(F)F)n2)nn1-c1ncccc1C(F)(F)F [Example 249] | ≥ 80 | 3.76 | ≥ 80 |  |  |  | 
Cc1cc(F)cc(C(=O)NC(C)C)c1NC(=O)c1cc(Cn2nnc(C(F)(F)C(F)(F)F)n2)nn1-c1ncccc1Cl [Example 149] |  |  | ≥ 80 | ≥ 80 | 3.59 |  | 
Cc1cc(F)cc(C(=O)NC(C)C2CC2)c1NC(=O)c1cc(Cn2nnc(C(F)(F)C(F)(F)F)n2)nn1-c1ncccc1Cl (stereo not drawn) [Example 148] |  |  | ≥ 80 | ≥ 80 | 3.8 |  | 
Cc1cc(Br)cc(C(=O)NC2CC2)c1NC(=O)c1cc(Cn2nnc(C(F)(F)C(F)(F)F)n2)nn1-c1ncccc1Cl [Example 145] |  |  | ≥ 80 | ≥ 80 | 3.74 |  | 
CNC(=O)c1cc(C#N)cc(C)c1NC(=O)c1cc(Cn2nnc(C(F)(F)C(F)(F)F)n2)nn1-c1ncccc1Cl [Example 213] |  |  | ≥ 80 | ≥ 80 | 3.05 |  | 
Cc1cc(Cl)cc(C(=O)NC2CC2)c1NC(=O)c1cc(Cn2nnc(C(F)(F)C(F)(F)F)n2)nn1-c1ncccc1Cl [Example 127] |  |  | ≥ 80 | ≥ 80 | 3.7 |  | 
Cc1cc(Br)cc(C(=O)NCC2CC2)c1NC(=O)c1cc(Cn2nnc(C(F)(F)F)n2)nn1-c1ncccc1Cl [Example 47] |  |  | ≥ 80 | ≥ 80 | 3.88 |  | 
Cc1cc(C#N)cc(C(=O)NCC2CC2)c1NC(=O)c1cc(Cn2nnc(C(F)(F)C(F)(F)F)n2)nn1-c1ncccc1Cl [Example 138] |  |  | ≥ 80 | ≥ 80 | 3.56 |  | 
Cc1cc(I)cc(C(=O)NC(C)C)c1NC(=O)c1cc(Cn2nnc(C(F)(F)C(F)(F)C(F)(F)F)n2)nn1-c1ncccc1Cl [Example 109] |  |  | ≥ 80 | ≥ 80 |  |  | 4.48
Cc1cc(I)cc(C(=O)NC(C)(C)C)c1NC(=O)c1cc(Cn2nnc(C(F)(F)C(F)(F)C(F)(F)F)n2)nn1-c1ncccc1Cl [Example 121] |  |  | ≥ 80 | ≥ 80 |  |  | 4.86
CCNC(=O)c1cc(Cl)cc(C)c1NC(=O)c1cc(Cn2nnc(C(F)F)n2)nn1-c1ncccc1Cl [Example 257] |  |  | ≥ 80 | ≥ 80 | 2.69 |  | 
Cc1cc(C#N)cc(C(=O)NCC2CC2)c1NC(=O)c1cc(Cn2nnc(C(F)(C(F)(F)F)C(F)(F)F)n2)nn1-c1ncccc1Cl [Example 373] | ≥ 80 | 3.84 | ≥ 80 |  |  |  | 

SMILES | pest or weed control at 100 g/ha [1, 4] [%] | chromatographic logP [2, 5] | pest or weed control at 100 g/ha [3] [%] | pest or weed control at 100 g/ha ([1]; in Zea mays) [%] | chromatographic logP ([2]; log P) | chromatographic logP [2, 6] | chromatographic logP [2, 7]
Cc1cc(Cl)cc(C(=O)NC2CCC2)c1NC(=O)c1cc(Cn2nnc(C(F)(F)C(F)(F)F)n2)nn1-c1ncccc1Cl [Example 132] |  |  | ≥ 80 | ≥ 80 | 4.03 |  | 
Cc1cc(F)cc(C(=O)NC(C)(C)C)c1NC(=O)c1cc(Cn2nnc(C(F)(F)F)n2)nn1-c1ncccc1Cl [Example 115] |  |  | ≥ 80 | ≥ 80 | 3.51 |  | 
O=C(NC1CCC1)c1cc(Cl)cc(Cl)c1NC(=O)c1cc(Cn2nnc(C(F)F)n2)nn1-c1ncccc1Cl [Example 291] |  |  | ≥ 80 | ≥ 80 | 3.06 |  | 
Cc1cc(I)cc(C(=O)NC(C)(C)C)c1NC(=O)c1cc(Cn2nnnc2C(F)(F)F)nn1-c1ncccc1Br [Example 496] | ≥ 80 |  | ≥ 80 |  |  | 3.73 | 
Cc1cc(C#N)cc(C(=O)NC(C)C)c1NC(=O)c1cc(Cn2nnc(C(F)(F)F)n2)nn1-c1ncccc1Br [Example 323] | ≥ 80 | 3.1 | ≥ 80 |  |  |  | 
CCC(C)NC(=O)c1cc(Cl)cc(C)c1NC(=O)c1cc(Cn2nnc(C(F)(F)F)n2)nn1-c1ncccc1Cl (stereo not drawn) [Example 36] |  |  | ≥ 80 | ≥ 80 | 3.74 |  | 
Cc1cc(C#N)cc(C(=O)NC2CCCC2)c1NC(=O)c1cc(Cn2nnc(C(F)(F)F)n2)nn1-c1ccccc1Cl [Example 401] | ≥ 80 |  | ≥ 80 |  |  | 3.84 | 
Cc1cc(I)cc(C(=O)NC(C)C)c1NC(=O)c1cc(Cn2nnc(C(F)F)n2)nn1-c1ncccc1Cl [Example 277] |  |  | ≥ 80 | ≥ 80 | 3.2 |  | 
Cc1cc(Cl)cc(C(=O)NC(C)(C)C)c1NC(=O)c1cc(Cn2nnc(C(F)(F)F)n2)nn1-c1ccccc1Br [Example 348] | ≥ 80 | 4.43 | ≥ 80 |  |  |  | 
Cc1cc(C#N)cc(C(=O)NC(C)C)c1NC(=O)c1cc(Cn2nnnc2C(F)(F)C(F)(F)F)nn1-c1ncccc1Cl [Example 202] |  |  | ≥ 80 | ≥ 80 | 3.14 |  | 
Cc1cc(I)cc(C(N)=O)c1NC(=O)c1cc(Cn2nnc(C(F)(F)C(F)(F)C(F)(F)F)n2)nn1-c1ncccc1Cl [Example 110] |  |  | ≥ 80 | ≥ 80 |  |  | 3.7
Cc1cc(C#N)cc(C(=O)NC2CC2)c1NC(=O)c1cc(Cn2nnc(C(F)(F)F)n2)nn1-c1ncccc1C(F)(F)F [Example 233] | ≥ 80 | 3.07 | ≥ 80 |  |  |  | 
Cc1cc(Cl)cc(C(=O)NCC2CC2)c1NC(=O)c1cc(Cn2nnc(C(F)(F)F)n2)nn1-c1ncccc1Cl [Example 46] |  |  | ≥ 80 | ≥ 80 | 3.53 |  | 
Cc1cc(C#N)cc(C(N)=O)c1NC(=O)c1cc(Cn2nnnc2C(F)(F)F)nn1-c1ncccc1Cl [Example 192] |  |  | ≥ 80 | ≥ 80 | 2.12 |  | 
CNC(=O)c1cc(I)cc(C)c1NC(=O)c1cc(Cn2nnc(C(F)(F)C(F)(F)C(F)(F)F)n2)nn1-c1ncccc1Cl [Example 112] |  |  | ≥ 80 | ≥ 80 |  |  | 3.99
CC(C)(C)NC(=O)c1cc(Cl)cc(Cl)c1NC(=O)c1cc(Cn2nnc(C(F)F)n2)nn1-c1ncccc1Cl [Example 287] |  |  | ≥ 80 | ≥ 80 | 3.28 |  | 
Cc1cc(Br)cc(C(=O)NC(C)C)c1NC(=O)c1cc(Cn2nnc(C(F)(F)C(F)(F)F)n2)nn1-c1ncccc1Cl [Example 146] |  |  | ≥ 80 | ≥ 80 | 3.95 |  | 
CC(NC(=O)c1cc(Cl)cc(Cl)c1NC(=O)c1cc(Cn2nnc(C(F)(F)C(F)(F)F)n2)nn1-c1ncccc1Cl)C1CC1 (stereo not drawn) [Example 150] |  |  | ≥ 80 | ≥ 80 | 4.12 |  | 
CNC(=O)c1cc(Cl)cc(C)c1NC(=O)c1cc(Cn2nnc(C(F)(F)C(F)(F)F)n2)nn1-c1ncccc1Cl [Example 125] |  |  | ≥ 80 | ≥ 80 | 3.39 |  | 
